The supplement of paper PMC10307832

Legend:
Assay in all cases: relative viability (nuclei count vs DMSO), 5 days (fraction); higher = more cells survive
Zebularine + Tozasertib = compound: O=c1ncccn1[C@@H]1O[C@H](CO)[C@@H](O)[C@H]1O [Zebularine] + Cc1cc(Nc2cc(N3CCN(C)CC3)nc(Sc3ccc(NC(=O)C4CC4)cc3)n2)n[nH]1 [Tozasertib] (partner 0.1 µM)
In short: (§1)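 After 5 days of treatment, lung cancer cells in 1536-well plates were fixed and stained in a single step (final 0.05% Triton X-100, 1% formaldehyde, 1 ug/ml Hoechst) and their nuclei counted on 4× images. Treatment had been applied by pin tool the day after seeding as one drug alone or as a fixed anchor-drug dose with five library-drug doses (not always all listed) in √10 steps. Relative viability is the nuclei count of treated wells divided by that of vehicle wells, and values are medians of duplicate plates.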

Zebularine + Olaparib = compound: O=c1ncccn1[C@@H]1O[C@H](CO)[C@@H](O)[C@H]1O [Zebularine] + O=C(c1cc(Cc2n[nH]c(=O)c3ccccc23)ccc1F)N1CCN(C(=O)C2CC2)CC1 [Olaparib] (partner 8 µM)
In short: as §1

BI-D1870 + Foretinib = compound: CC(C)CCN1c2nc(Nc3cc(F)c(O)c(F)c3)ncc2N(C)C(=O)C1C [BI-D1870] + COc1cc2c(Oc3ccc(NC(=O)C4(C(=O)Nc5ccc(F)cc5)CC4)cc3F)ccnc2cc1OCCCN1CCOCC1 [Foretinib] (partner 0.25 µM)
In short: as §1

BI-D1870 + Pictilisib = compound: CC(C)CCN1c2nc(Nc3cc(F)c(O)c(F)c3)ncc2N(C)C(=O)C1C [BI-D1870] + CS(=O)(=O)N1CCN(Cc2cc3nc(-c4cccc5[nH]ncc45)nc(N4CCOCC4)c3s2)CC1 [Pictilisib] (partner 1 µM)
In short: as §1

Cell Line | relative viability (Zebularine + Tozasertib; first compound 1 µM) | relative viability (Zebularine + Tozasertib; first compound 3.162 µM) | relative viability (Zebularine + Tozasertib; first compound 10 µM) | relative viability (Zebularine + Tozasertib; first compound 31.62 µM) | relative viability (Zebularine + Tozasertib; first compound 100 µM) | relative viability (Zebularine + Olaparib; first compound 1 µM) | relative viability (Zebularine + Olaparib; first compound 3.162 µM) | relative viability (Zebularine + Olaparib; first compound 10 µM) | relative viability (Zebularine + Olaparib; first compound 31.62 µM) | relative viability (Zebularine + Olaparib; first compound 100 µM) | relative viability (BI-D1870 + Foretinib; first compound 0.04 µM) | relative viability (BI-D1870 + Foretinib; first compound 0.1265 µM) | relative viability (BI-D1870 + Foretinib; first compound 0.4 µM) | relative viability (BI-D1870 + Foretinib; first compound 1.265 µM) | relative viability (BI-D1870 + Foretinib; first compound 4 µM) | relative viability (BI-D1870 + Pictilisib; first compound 0.04 µM) | relative viability (BI-D1870 + Pictilisib; first compound 0.1265 µM) | relative viability (BI-D1870 + Pictilisib; first compound 0.4 µM) | relative viability (BI-D1870 + Pictilisib; first compound 1.265 µM) | relative viability (BI-D1870 + Pictilisib; first compound 4 µM)
NCI-H1648 | 0.551 | 0.418 | 0.407 | 0.342 | 0.379 | 0.588 | 0.852 | 0.643 | 0.7 | 0.471 | – | – | – | – | – | – | – | – | – | –
SK-MES-1 | 1.02 | 0.991 | 0.599 | 0.611 | 0.248 | 0.947 | 0.722 | 0.479 | 0.393 | 0.268 | 0.871 | 0.77 | 0.706 | 0.868 | 0.769 | 0.345 | 0.332 | 0.291 | 0.308 | 0.23
HCC-366 | 0.169 | 0.112 | 0.182 | 0.132 | 0.0608 | 0.411 | 0.294 | 0.186 | 0.103 | 0.108 | 0.957 | 0.906 | 0.932 | 0.896 | 0.943 | 0.157 | 0.159 | 0.0753 | 0.136 | 0.174
201T | 1.03 | 0.938 | 0.647 | 0.977 | 0.595 | 0.907 | 0.798 | 0.574 | 0.544 | 0.474 | 1.22 | 1.02 | 1 | 1.29 | 1.05 | 0.672 | 0.624 | 0.716 | 0.684 | 0.642
HCC-827 | 0.417 | 0.445 | 0.306 | 0.373 | 0.196 | 0.752 | 0.607 | 0.487 | 0.415 | 0.252 | 1.05 | 0.968 | 0.967 | 1.06 | 1.03 | 0.96 | 1.05 | 1.08 | 1.14 | 0.91
NCI-H647 | 0.284 | 0.353 | 0.152 | 0.144 | 0.265 | 0.506 | 0.291 | 0.171 | 0.15 | 0.165 | 1.11 | 1.18 | 1.13 | 1.35 | 1.17 | 0.497 | 0.387 | 0.444 | 0.512 | 0.34
NCI-H2023 | 0.462 | 0.319 | 0.242 | 0.283 | 0.169 | 0.512 | 0.452 | 0.392 | 0.256 | 0.244 | 0.919 | 0.635 | 0.823 | 0.851 | 0.945 | 0.271 | 0.199 | 0.221 | 0.235 | 0.153
NCI-H520 | 0.43 | 0.561 | 0.353 | 0.269 | 0.25 | 0.337 | 0.299 | 0.319 | 0.243 | 0.192 | 0.821 | 0.724 | 0.741 | 0.958 | 0.818 | 0.317 | 0.275 | 0.348 | 0.36 | 0.233
RERF-LC-KJ | 0.533 | 0.433 | 0.458 | 0.553 | 0.473 | 0.989 | 0.874 | 0.655 | 1.03 | 0.845 | 0.885 | 0.842 | 0.878 | 0.846 | 0.909 | 0.546 | 0.501 | 0.451 | 0.597 | 0.459
A-427 | 0.201 | 0.194 | 0.222 | 0.155 | 0.152 | 0.771 | 0.668 | 0.576 | 0.446 | 0.244 | 1.14 | 0.895 | 0.991 | 1.11 | 1.13 | 0.824 | 0.553 | 0.689 | 0.716 | 0.654
NCI-H441 | 0.825 | 0.711 | 0.334 | 0.221 | 0.344 | 0.568 | 0.41 | 0.32 | 0.227 | 0.24 | 1.08 | 0.787 | 1.05 | 1.05 | 0.804 | 0.498 | 0.374 | 0.518 | 0.466 | 0.492
NCI-H1703 | – | – | – | – | – | 0.468 | 0.552 | 0.339 | 0.395 | 0.321 | 0.381 | – | 0.295 | 0.355 | 0.385 | 0.256 | 0.245 | 0.234 | 0.213 | 0.209
NCI-H1792 | – | – | – | – | – | 0.228 | 0.131 | 0.204 | 0.171 | 0.182 | – | – | – | – | – | 0.248 | 0.274 | 0.24 | 0.297 | 0.227
Calu-6 | – | – | – | – | – | 0.739 | 0.467 | 0.409 | 0.331 | 0.253 | 0.929 | 0.789 | 0.87 | 0.774 | 0.561 | 1.03 | 0.82 | 0.868 | 0.704 | 0.367
SK-LU-1 | 0.378 | 0.34 | 0.254 | 0.302 | 0.29 | 0.434 | 0.351 | 0.333 | 0.313 | 0.289 | 0.86 | 0.676 | 0.739 | 0.798 | 0.525 | 0.543 | 0.544 | 0.604 | 0.576 | 0.343
PC-3 [JPC-3] | 0.963 | 0.924 | 0.485 | 0.668 | 0.473 | 1.18 | 0.984 | 0.675 | 0.673 | 0.593 | 0.999 | 1.01 | 1.02 | 1.06 | 0.961 | 0.768 | 0.71 | 0.699 | 0.793 | 0.645
EMC-BAC-2 | 0.326 | 0.313 | 0.266 | 0.28 | 0.313 | 0.559 | 0.477 | 0.364 | 0.526 | 0.488 | 1.07 | 0.875 | 0.918 | 1.09 | 1.02 | 0.626 | 0.48 | 0.514 | 0.637 | 0.535
LK-2 | 0.179 | 0.188 | 0.171 | 0.178 | 0.166 | 0.884 | 0.714 | 0.335 | 0.259 | 0.221 | 1.32 | 1.13 | 1.34 | 1.51 | 1.6 | 0.557 | 0.484 | 0.535 | 0.619 | 0.533
